Patent US20120225909A1, “INDAZOLE ANALOG” (priority 2009, published 2012)

Key:
[1] = target: T1, human β1-adrenergic receptor (Homo sapiens, UniProt P08588); assay: Test Case 2-B: human β1-adrenergic receptor agonist activity; format: cell-based; details: for Emax: read-out: β1 receptor I.A.; for β1 receptor I.A.: Test Case 2-B, maximum response of isoproterenol = 100%
T1 construct: expressed in transfected cells; host or cells: CHO (Chinese hamster ovary) cells, pcDNA3
Procedure: Measurement of Human β1-Adrenergic Receptor Agonist Activity
The human β1-adrenergic receptor agonist activity is measured by the same method as in Test Case 1-B using CHO (Chinese hamster ovary) cells transfected by a human β1 gene inserted in pcDNA3 (Invitrogen).

[2] = test system: pentobarbital-anesthetized rats; assay: Test Case 9: effects on the blood pressure and heart rate in pentobarbital-anesthetized rats; format: in vivo, rat
Procedure: Effects on the blood pressure and heart rate in pentobarbital-anesthetized rats
The blood pressure and heart rate of rats under pentobarbital anesthesia are measured, and the effects of rapid intravenous administration of the test compound on the blood pressure and heart rate can be studied. After anesthetizing male SD rats (Japan SLC) by intraperitoneal administration of 50 mg/kg of pentobarbital sodium (Tokyo Chemical Industry Co., Ltd.), 25 mg/kg of pentobarbital sodium is administered subcutaneously as maintenance anesthesia. The left femoral vein is exposed and stripped, and a SP10 polyethylene tube filled with saline (connected to a three-way stopcock via a ¼ venous needle) is inserted and left in place in the vein.
The inside of the left thigh is cut, and the femoral artery is exposed and stripped. A polyethylene tube filled with heparinized physiological saline solution (SP31, connected to a three-way stopcock via a Terumo injection needle 22G) is inserted and connected to a pressure transducer. The blood pressure is measured from the pressure transducer via a strain pressure amplifier (AP-641G, Nihon Kohden). The heart rate is measured with the pulse wave of the blood pressure as a trigger via a heart rate counter (AT-601G, Nihon Kohden). The blood pressure, mean blood pressure, and heart rate are output to a recorder and recorded. Furthermore, the mean blood pressure is recorded via the strain pressure amplifier (AP-641G) using the formula {[…]}.
Specifically, 3 mg/mL of test compound is administered rapidly at a volume of 1 mL/kg. The relative value (%) of the values at each point in time versus the mean blood pressure and heart rate before beginning administration are determined for each individual, and the mean±standard deviation of the relative value (%) at the time of the maximum change in each parameter is determined.

[3] = target: T2, human α1A-adrenergic receptor (Homo sapiens, UniProt P35348); assay: Test Case 4-A: human α1A-adrenergic receptor agonist activity (HEK293, Ca flux, Fura-2); format: cell-based; parameters: expressed in transfected cells; host or cells: HEK293 cells, pcDNA3.1; details: for Emax: HEK293, read-out: α1A receptor I.A.; for α1A receptor I.A.: Test Case 4-A, maximum response of norepinephrine = 100%, Table 4
T2 sequence (P35348 1-466): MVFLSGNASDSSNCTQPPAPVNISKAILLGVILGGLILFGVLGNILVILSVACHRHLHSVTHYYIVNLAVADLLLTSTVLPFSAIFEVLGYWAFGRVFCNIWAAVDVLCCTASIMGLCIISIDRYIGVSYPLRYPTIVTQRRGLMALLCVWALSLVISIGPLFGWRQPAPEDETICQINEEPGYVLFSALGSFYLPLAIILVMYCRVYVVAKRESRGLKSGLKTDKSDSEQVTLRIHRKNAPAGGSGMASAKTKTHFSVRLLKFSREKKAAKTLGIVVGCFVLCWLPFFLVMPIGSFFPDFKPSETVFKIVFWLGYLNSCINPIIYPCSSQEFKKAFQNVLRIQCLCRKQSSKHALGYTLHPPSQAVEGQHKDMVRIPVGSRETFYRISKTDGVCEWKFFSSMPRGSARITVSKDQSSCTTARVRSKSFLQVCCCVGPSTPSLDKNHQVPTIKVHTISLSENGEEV
In short: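 Fura-2AM-loaded HEK293 cells transfected with human α1A were preincubated for 180 s. Compound (sample plate 10^−5 to 10^−12 M) was added after ~30 s of 340/380 nm excitation ratio reading (500 nm emission, 2-s intervals), followed by 270 s more reading. Ca flux is the peak height: maximum ratio after addition minus the pre-addition ratio.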

[4] = target: T3, human β2-adrenergic receptor (Homo sapiens, UniProt P07550); assay: Test Case 3-B: human β2-adrenergic receptor agonist activity; format: cell-based; details: for Emax: read-out: β2 receptor I.A.; for β2 receptor I.A.: Test Case 3-B, maximum response of isoproterenol = 100%
T3 construct: expressed in transfected cells; host or cells: CHO (Chinese hamster ovary) cells, pcDNA3
Procedure: Measurement of Human β2-Adrenergic Receptor Agonist Activity
The human β2-adrenergic receptor agonist activity is measured by the same method as in Test Case 1-B using CHO (Chinese hamster ovary) cells transfected by a human β2 gene inserted in pcDNA3 (Invitrogen).

[5] = target: T4, human β3-adrenergic receptor (Homo sapiens, UniProt P13945); assay: Test Case 1-B: human β3-adrenergic receptor agonist activity (cAMP-Screen, 96-well); format: cell-based; details: for Emax: 0.5 h, read-out: β3 receptor I.A.; for EC50 / β3 receptor I.A.: Test Case 1-B; for EC50: CHO cells, cAMP; for β3 receptor I.A.: maximum response of isoproterenol = 100%
T4 construct: A full-length human β3 gene is obtained from a human genomic library (made by Clontech) using this as the probe; expressed in transfected cells; host or cells: CHO (Chinese hamster ovary) cells, pcDNA3
In short: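 CHO cells stably transfected with full-length human β3 gene, serum-starved 15 min, then exposed to serially diluted compound in Ham's F-12 with 100 mmol/L HEPES and 1 mmol/L IBMX (diluent concentrations) for 30 min. Cells lysed 30 min at 37 °C; cAMP quantified by cAMP-Screen immunoassay.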

Male C57BL/6 Cr mice = assay: Test Case 10: mouse piloerection test; format: in vivo
Procedure: Male C57BL/6 Cr mice (Japan SLC) are used. The dissolved compound is administered rapidly via a caudal vein. The animal is placed on the observation stand 5, 15, 30, and 60 minutes after administration, and the state of piloerection is observed. The state of piloerection is evaluated by the following 7-level scoring system according to the examples by the method of Irwin (Psychopharmacologia 1968, 13; 222-257).
Scoring system: “Score 0”: No piloerection at all; “Score 1”: Slight piloerection (piloerection on part of the body such as the back or neck); “Score 2”: Moderate piloerection (piloerection over the entire body); “Score 3”: Marked piloerection (piloerection over the entire body, conspicuous to the extent that the skin can be seen).
“Score 0.5” is between “Score 0” and “Score 1” “Score 1.5” is between […]. “Score 2.5” is between “Score 2” and “Score 3.”

[6] = anesthetized male SD rats, 3 mg/kg intravenous over 30 seconds, maximum change, mean±standard deviation, 3 mg/kg
[7] = 10 mg/kg i.v., n=4, observation time 5 min, Score 0
[8] = 10 mg/kg i.v., n=4, observation time 5 min
[9] = 10 mg/kg i.v., n=4, observation time 15 min, Score 0
[10] = 10 mg/kg i.v., n=4, observation time 15 min
[11] = 10 mg/kg i.v., n=4, observation time 30 min, Score 0
[12] = 10 mg/kg i.v., n=4, observation time 30 min
[13] = 10 mg/kg i.v., n=4, observation time 60 min, Score 0
[14] = anesthetized male SD rats, 3 mg/kg intravenous over 30 seconds, maximum change, mean±standard deviation

T3 sequence (P07550 whole entry): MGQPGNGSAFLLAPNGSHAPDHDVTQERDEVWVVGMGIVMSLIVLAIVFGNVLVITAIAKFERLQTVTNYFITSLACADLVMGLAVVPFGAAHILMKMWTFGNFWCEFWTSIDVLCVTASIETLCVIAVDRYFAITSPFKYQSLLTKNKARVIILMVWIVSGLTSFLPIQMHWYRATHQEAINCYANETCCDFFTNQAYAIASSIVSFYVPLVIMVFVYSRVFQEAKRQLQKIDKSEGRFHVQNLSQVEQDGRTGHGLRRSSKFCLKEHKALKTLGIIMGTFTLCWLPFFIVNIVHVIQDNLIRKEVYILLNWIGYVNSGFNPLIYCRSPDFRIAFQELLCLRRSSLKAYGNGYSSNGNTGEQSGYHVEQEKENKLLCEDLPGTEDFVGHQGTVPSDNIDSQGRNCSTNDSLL
T1 sequence (P08588 whole entry): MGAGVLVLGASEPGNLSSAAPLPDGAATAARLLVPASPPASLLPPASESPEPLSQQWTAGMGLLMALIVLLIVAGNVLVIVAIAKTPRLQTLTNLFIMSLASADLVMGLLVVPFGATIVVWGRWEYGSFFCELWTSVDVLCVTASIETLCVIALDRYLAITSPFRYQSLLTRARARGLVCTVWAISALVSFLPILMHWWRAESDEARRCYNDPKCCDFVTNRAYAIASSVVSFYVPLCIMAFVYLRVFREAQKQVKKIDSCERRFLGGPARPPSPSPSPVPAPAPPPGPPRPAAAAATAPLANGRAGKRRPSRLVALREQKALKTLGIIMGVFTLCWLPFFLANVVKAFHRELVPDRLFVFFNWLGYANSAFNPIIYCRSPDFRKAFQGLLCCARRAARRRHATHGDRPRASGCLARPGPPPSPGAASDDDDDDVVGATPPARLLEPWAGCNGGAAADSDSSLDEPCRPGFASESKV
T4 sequence (P13945 whole entry): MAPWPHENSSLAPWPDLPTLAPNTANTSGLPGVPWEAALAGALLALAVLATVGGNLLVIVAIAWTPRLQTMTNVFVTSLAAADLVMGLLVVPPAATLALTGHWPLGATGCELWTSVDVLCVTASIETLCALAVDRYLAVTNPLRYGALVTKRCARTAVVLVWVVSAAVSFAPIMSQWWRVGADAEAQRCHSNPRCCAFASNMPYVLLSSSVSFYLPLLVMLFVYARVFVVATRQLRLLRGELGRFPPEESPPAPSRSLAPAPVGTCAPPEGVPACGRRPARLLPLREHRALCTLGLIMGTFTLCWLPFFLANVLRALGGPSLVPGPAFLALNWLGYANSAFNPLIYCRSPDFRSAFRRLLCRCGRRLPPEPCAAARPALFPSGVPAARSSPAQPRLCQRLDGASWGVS

SMILES	Emax [1] [%]	Emax [3] [%]	Emax [4] [%]	Emax [5] [%]	EC50 [5] [nM]	number of experimental animals matching Score 0 (no piloerection) (Male C57BL/6 Cr mice; [7])	number of experimental animals matching Score 0 (no piloerection) (Male C57BL/6 Cr mice; [9])	number of experimental animals matching Score 0 (no piloerection) (Male C57BL/6 Cr mice; [11])	number of experimental animals matching Score 0 (no piloerection) (Male C57BL/6 Cr mice; [13])	increase in MBP (%) [2, 14] [%]	β1 receptor I.A. [1] [%]	α1A receptor I.A. [3] [%]	β2 receptor I.A. [4] [%]	β3 receptor I.A. [5] [%]	number of experimental animals matching Score 0 (no piloerection) (Male C57BL/6 Cr mice; in vivo, iv, 10 mg/kg)	increase in MBP (%) ([2]; rat, in vivo, iv, 3 mg/kg)	other results
COc1n[nH]c2cc(OCCNC[C@H](O)c3cccc(NS(=O)(=O)c4cccs4)c3)ccc12 [ex2, (R)—N-(3-(1-hydroxy-2-(2-(3-methoxyindazol-6-yloxy)ethylamino)ethyl)phenyl)thiophene-2-sulfonamide]	6	0	3	109	3.5	–	–	–	–	–	–	–	–	–	–	–	increase in MBP (%) [2, 6]: 4.9 ± 0.9%
COc1n[nH]c2cc(OCCNC[C@H](O)c3cccc(NS(=O)(=O)c4ccccc4F)c3)ccc12 [ex5, (R)-2-fluoro-N-(3-(1-hydroxy-2-(2-(3-methoxyindazol-6-yloxy)ethylamino)ethyl)phenyl)benzenesulfonamide]	5	0	0	90	90	2	2	2	2	5.1 ± 2.4	–	–	–	–	–	–	number of experimental animals matching Score 0.5 (Male C57BL/6 Cr mice; [8]): 2; number of experimental animals matching Score 0.5 (Male C57BL/6 Cr mice; [10]): 2; number of experimental animals matching Score 0.5 (Male C57BL/6 Cr mice; [12]): 2; number of experimental animals matching Score 0.5 (Male C57BL/6 Cr mice; 10 mg/kg i.v., n=4, observation time 60 min): 2
COc1n[nH]c2cc(OCCNC[C@H](O)c3cccc(NS(=O)(=O)c4ccsc4)c3)ccc12 [ex11, (R)-N-(3-(1-hydroxy-2-(2-(3-methoxyindazol-6-yloxy)ethylamino)ethyl)phenyl) thiophene-3-sulfonamide]	3	0	3	115	3.2	–	–	–	–	–	–	–	–	–	–	–	increase in MBP (%) [2, 6]: 6.1 ± 3.7%
COc1n[nH]c2cc(OCCNC[C@H](O)c3cccc(NS(=O)(=O)c4cccc(N)c4)c3)ccc12 [ex41, (R)-3-amino-N-(3-(1-hydroxy-2-(2-(3-methoxyindazol-6-yloxy)ethylamino)ethyl)phenyl) benzenesulfonamide]	–	–	–	–	0.21	–	–	–	–	5.7 ± 0.8	12	0	5	76	–	–	–
COc1n[nH]c2cc(OCCNC[C@H](O)c3cccc(NS(=O)(=O)c4cccnc4)c3)ccc12 [ex44, (R)-N-(3-(1-hydroxy-2-(2-(3-methoxyindazol-6-yloxy)-ethylamino)ethyl)phenyl)py-ridine-3-sulfonamide]	–	–	–	–	13	–	–	–	–	–	9	0	5	58	4	5.7 ± 3.0	–
COc1n[nH]c2cc(OCCNC[C@H](O)c3cccc(NS(=O)(=O)c4cccs4)c3)ccc12 [ex45, (R)-N-(3-(1-hydroxy-2-(2-(3-methoxyindazol-6-yloxy)-ethylamino)ethyl)phenyl)thio-phene-2-sulfonamide]	–	–	–	–	2.4	–	–	–	–	–	9	0	2	80	1	3.9 ± 2.1	–
COc1n[nH]c2cc(OCCNC[C@H](O)c3cccc(NS(=O)(=O)c4ccsc4)c3)ccc12 [ex46, (R)-N-(3-(1-hydroxy-2-(2-(3-methoxyindazol-6-yloxy)-ethylamino)ethyl)phenyl)thio-phene-3-sulfonamide]	–	–	–	–	2.4	–	–	–	–	–	5	0	−2	78	4	5.6 ± 1.1	–
Cc1n[nH]c2cc(OCCNC[C@H](O)c3cccc(NS(=O)(=O)c4cc(N)ccc4F)c3)ccc12 [ex61]	17	0	-3	64	0.2	4	4	4	4	4.7 ± 1.2	–	–	–	–	–	–	–
Cc1n[nH]c2cc(OCCNC[C@H](O)c3cccc(NS(=O)(=O)c4cnn(C)c4)c3)ccc12 [ex79, (R)-N-(3-(1-hydroxy-2-(2-(3-methylindazol-6-yloxy)ethylamino)ethyl)phenyl)-1-methyl-pyrazole-4-sulfonamide]	7	0	7	84	54	3	3	3	4	4.2 ± 1.8	–	–	–	–	–	–	number of experimental animals matching Score 0.5 (Male C57BL/6 Cr mice; [8]): 1; number of experimental animals matching Score 0.5 (Male C57BL/6 Cr mice; [10]): 1; number of experimental animals matching Score 0.5 (Male C57BL/6 Cr mice; [12]): 1
Cc1n[nH]c2cc(OCCNC[C@H](O)c3cccc(NS(=O)(=O)c4cn[nH]c4)c3)ccc12 [ex82, (R)-N-(3-(1-hydroxy-2-(2-(3-methylindazol-6-yloxy)ethylamino)ethyl)phenyl)py-razole-4-sulfonamide]	7	13	2	71	16	–	–	–	–	5.7 ± 0.8	–	–	–	–	–	–	–
